Converted amounts (≈) assume the structure as drawn.
Assay: physchem
Settings: water

COc1ccc(C(=O)N2CCCc3cc(C4=NNC(=O)SC4C)ccc32)cc1OC (stereo not shown) [thiadiazinone, 5-[1-(3,4-dimethoxybenzoyl)-1,2,3,4-tetrahydroquinolin-6-yl]-6-methyl-3,6-dihydro-1,3,4-thiadiazin-2-one]
solubility: 2 µg/mL (≈ 4.7 µM)

— patent US20030153585A1, “Pharmaceutical preparations containing 2-pyrrolidone as the dissolving intermediary” (priority 2000, published 2003)
